For three molecules, MIC and IC50 results are on record in ChEMBL document CHEMBL1155743, “New bromoditerpenes from the red alga Sphaerococcus coronopifolius” (J Nat Prod, 2001).

Molecules are shown by their SMILES. In brackets after ≈: the same amount, converted by molar mass.

In general, MIC refers to the lowest concentration that inhibits growth of the organism. A high value points to a less susceptible organism. For orientation: IC50 means the concentration that inhibits the measured activity by half. Lower therefore signals inhibition by little substance.

The test system of one assay is Staphylococcus aureus. Briefly: Antibacterial activity against Staphylococcus aureus ATCC 6538 by disk diffusion assay. Type of assay: functional. (In agar diffusion tests the substance spreads into inoculated agar from a disc or well.)
The test system of another assay is Plasmodium falciparum. Briefly: Antimalarial activity against chloroquine-resistant Plasmodium falciparum FCB1 in human blood by [3H]hypoxanthine uptake. Type of assay: functional, organism-based.

In the assay on Staphylococcus aureus, `CC(C)[C@@H]1C=CC(=O)[C@H]2[C@@H]3[C@](C)(O)[C@@H](O)C[C@H](Br)[C@@]3(C)CC[C@]12CBr` [BROMOSPHAERONE] came in with an MIC of 0.104 µM (≈ 0.0497 µg/mL).

In the assay on Staphylococcus aureus, `CC(C)[C@@H]1C=C[C@H](O)[C@H]2[C@@H]3[C@](C)(O)[C@@H](O)C[C@H](Br)[C@@]3(C)CC[C@@]21CBr` showed an MIC of 0.146 µM (≈ 0.0701 µg/mL).

Molecule `CC(C)[C@@H]1CC=C[C@H]2[C@H]3[C@@](C)(C=CC(=O)[C@@]3(C)O)CC[C@]12CBr` [SPHAEROCOCCENOL A] displayed an IC50 with Plasmodium falciparum of 1 µM.
